Experimental data as given in patent US7964638B2, “Skin cosmetic and wrinkle-reducing agent” (Kao Corporation, priority 2005, dated 2011).

Assay: Normal safety test

O[C@@H]1CO[C@H]2[C@@H]1OC[C@@H]2O [isosorbide]
Normal safety test: no problem occurred
